Key:
Test in all cases: Greenhouse pre-emergence GR15/GR85 selectivity test
Assay type in all cases: in vivo
[1] = system: Quackgrass
Excerpt: (§1) A good grade of top soil is placed in aluminum pans and compacted to a depth of three-eighths to one-half inch from the top of the pan. On the top of the soil is placed a number of seeds or vegetative propagules of various plant species. The soil required to level fill the pans after seeding or adding vegetative propagules is weighed into a pan. The soil and a known amount of the active ingredient applied in a solvent or as a wettable powder suspension are thoroughly mixed, and used to cover the prepared pans. […] As an alternative procedure, the overhead irrigation may be omitted. Observations are made about 2-3 weeks after seeding and treatment.
(§2) A further guide to the effectiveness of a chemical as a selective herbicide is the "selectivity factor" ("SF") for a herbicide in given crops and weeds. The selectivity factor is a measure of the relative degree of crop safety and weed injury and is expressed in terms of the GR15 /GR85 ratio, i.e., the GR15 rate for the crop divided by the GR85 rate for the weed, both rates in kg/ha (lb/A). In the tables below, selectivity factors are shown in parenthesis following the GR85 rate for each weed; the symbol "NS" indicates "non-selective". Marginal or undetermined selectivity is indicated by a dash (--).
(§3) These weeds are commonly associated with such major crops as corn and soybeans. […] The test procedure was the same as described for Tables II and III but modified by the application of an initial overhead irrigation equivalent to 1/4" (0.64 cm) rainfall; subsequent watering was accomplished by subirrigation. "NS" means non-selective within the test limits.
(§4) Unless otherwise noted; greenhouse tests in Table VI and in other tables below involved herbicide treatments by soil incorporation and an initial overhead irrigation followed by subirrigation as described above.

[2] = system: Yellow Nutsedge
Excerpt: as §1, §2, §3, §4

[3] = system: corn
Excerpt: (§5) A good grade of top soil is placed in aluminum pans and compacted to a depth of three-eighths to one-half inch from the top of the pan. On the top of the soil is placed a number of seeds or vegetative propagules of various plant species. The soil required to level fill the pans after seeding or adding vegetative propagules is weighed into a pan. The soil and a known amount of the active ingredient applied in a solvent or as a wettable powder suspension are thoroughly mixed, and used to cover the prepared pans. After treatment, the pans are given an initial overhead irrigation of eater, equivalent to one-fourth inch (0.64 cm) rainfall, then watered by subirrigation as need to give adequate moisture for germination and growth. As an alternative procedure, the overhead irrigation may be omitted. Observations are made about 2-3 weeks after seeding and treatment.
(§6) In the discussion and tables of data below, reference is made to herbicide application rates symbolized as "GR15 " and "GR85 "; these rates are given in kilograms per hectare (kg/ha) which are convertible into pounds per acre (lbs/A) by dividing the kg/ha rate by 1.12.
as §2
(§7) In Table IV pre-emergence herbicidal activity data are presented comparing the relative efficacy of the invention compounds and said prior art compounds as selective herbicides against the resistant and troublesome perennial weeds quackgrass and yellow nutsedge in soybeans and corn, respectively. These weeds are commonly associated with such major crops as corn and soybeans. The test data in Table IV were obtained under identical procedural conditions and represent two replicate runs (except for the compound of Example 9 which was present in one comparative test). The test procedure was the same as described for Tables II and III but modified by the application of an initial overhead irrigation equivalent to 1/4" (0.64 cm) rainfall; subsequent watering was accomplished by subirrigation. "NS" means non-selective within the test limits.
(§8) Additionally, pre-emergence herbicidal data from other tests have established that compounds according to this invention also selectively suppress quackgrass, yellow nutsedge and/or other weeds in one or more of the crops cotton, peanuts, bush beans and/or rape. For example, in Table VI are presented data showing the herbicidal selectivity of the compounds of Examples 1 and 2 against quackgrass in rape and snap beans. Unless otherwise noted; greenhouse tests in Table VI and in other tables below involved herbicide treatments by soil incorporation and an initial overhead irrigation followed by subirrigation as described above.

[4] = system: soybeans
Excerpt: as §5, §6, §2, §7, §8

[5] = system: cotton; conditions: cotton/yellow nutsedge, average of two replicates
Excerpt: as §5, §6, §2, §8
In one multi-crop test in the greenhouse, the compounds of Examples 1, 9, and 10 were tested against yellow nutsedge in cotton, soybeans, corn and rice; each compound was non-selective with respect to yellow nutsedge in rice. However, markedly high selectivities for yellow nutsedge in cotton, soybeans and corn were shown for each of the compounds in the test; the respective GR15 and GR85 rates for these compounds are shown in Table XII selectivity factors are shown in parenthesis after each crop.

[6] = quackgrass in corn, Table IV, Replicate #2
[7] = yellow nutsedge in corn, Table IV, Replicate #1
[8] = yellow nutsedge in corn, Table IV, Replicate #2
[9] = yellow nutsedge in soybeans, Table IV, Replicate #1
[10] = yellow nutsedge in soybeans, Table IV, Replicate #2
[11] = quackgrass in soybeans, Table V
[12] = yellow nutsedge in corn, Table V
[13] = yellow nutsedge in soybeans, Table V
[14] = in cotton, average of two replicates

SMILES	GR85 ([1]; Table IV, Replicate #2)	selectivity factor (GR15/GR85) [1, 6]	GR85 ([2]; Table IV, Replicate #1)	GR85 ([2]; Table IV, Replicate #2)	selectivity factor (GR15/GR85) [2, 7]	selectivity factor (GR15/GR85) [2, 8]	selectivity factor (GR15/GR85) [2, 9]	selectivity factor (GR15/GR85) [2, 10]	GR15 ([3]; Table IV, Replicate #1)	GR15 ([3]; Table IV, Replicate #2)	GR85 ([1]; Table V)	selectivity factor (GR15/GR85) ([1]; quackgrass in corn, Table V)	selectivity factor (GR15/GR85) [1, 11]	GR85 ([2]; Table V)	selectivity factor (GR15/GR85) [2, 12]	selectivity factor (GR15/GR85) [2, 13]	GR15 ([3]; Table V)	other results
COCCN(C(=O)CCl)c1ccccc1C(F)(F)F [A, N-(methoxyethyl)-2'-trifluoromethyl-2-chloroacetanilide, reference compound]	> 2.2 Kg/Ha	NS (non-selective)	1.2 Kg/Ha	1.0 Kg/Ha	> 2	2	> 2	> 2	> 2.2 Kg/Ha	2.2 Kg/Ha	–	–	–	–	–	–	–	GR85 ([1]; Table IV, Replicate #1, extrapolated value): 2.5 Kg/Ha
CCOCCN(C(=O)CCl)c1ccccc1C(F)(F)F [B, N-(ethoxyethyl)-2'-trifluoromethyl-2-chloroacetanilide, reference compound]	0.64 Kg/Ha	NS (non-selective)	0.47 Kg/Ha	0.43 Kg/Ha	2.5	NS (non-selective)	4	4.5	1.2 Kg/Ha	0.37 Kg/Ha	–	–	–	–	–	–	–	GR85 ([1]; Table IV, Replicate #1): 0.56 Kg/Ha; selectivity factor (GR15/GR85) ([1]; quackgrass in corn, Table IV, Replicate #1): 2; selectivity factor (GR15/GR85) ([1]; quackgrass in soybeans, Table IV, Replicate #1): 3.5; selectivity factor (GR15/GR85) ([1]; quackgrass in soybeans, Table IV, Replicate #2): 3
COCCN(C(=O)CCl)c1c(C)cccc1C(F)(F)F [C, N-(methoxyethyl)-2'-trifluoromethyl-6'-methyl-2-chloroacetanilide, reference compound]	–	–	–	–	–	–	–	–	–	–	0.28 Kg/Ha	5	> 10	0.28 Kg/Ha	5	> 10	1.3 Kg/Ha	–
COCC(C)N(C(=O)CCl)c1c(C)cccc1C(F)(F)F (stereo not shown) [D, N-(methoxyisopropyl)-2'-trifluoromethyl-6'-methyl-2-chloroacetanilide, reference compound]	–	–	–	–	–	–	–	–	–	–	1.7 Kg/Ha	1	> 1.5	0.45 Kg/Ha	4	> 6	2.0 Kg/Ha	GR15 ([4]; Table V): > 2.8 Kg/Ha
CCOCCN(C(=O)CCl)c1c(C)cccc1C(F)(F)F [E, N-(ethoxyethyl)-2'-trifluoromethyl-6'-methyl-2-chloroacetanilide, reference compound]	–	–	–	–	–	–	–	–	–	–	0.28 Kg/Ha	2.5	3	0.22 Kg/Ha	3	4	0.67 Kg/Ha	–
C#CCOCN(C(=O)CCl)c1c(C)cccc1C(F)(F)F [Example 8, N--(propargyloxymethyl)-2'-trifluoromethyl-6'-methyl-2-chloroacetanilide]	–	–	–	–	–	–	–	–	–	–	–	–	–	–	–	–	–	GR15 [5]: 2.0 kg/ha; GR85 ([1]; both corn and soybeans): 0.5 kg/ha; S.F. (GR15/GR85) ([1]; in corn): 4.5; S.F. (GR15/GR85) ([1]; in soybeans): 4.5; GR85 ([2]; in corn): 0.95 kg/ha; S.F. (GR15/GR85) ([2]; in corn): 2.5; GR85 [2, 14]: 0.95 kg/ha; S.F. (GR15/GR85) [2, 14]: 2; GR85 ([2]; in soybeans): 0.5 kg/ha; S.F. (GR15/GR85) ([2]; in soybeans): 4.5; GR15 ([3]; corn/quackgrass): > 2.2 kg/ha; GR15 ([3]; corn/yellow nutsedge): > 2.2 kg/ha; GR15 ([4]; soybeans/quackgrass): > 2.2 kg/ha; GR15 ([4]; soybeans/yellow nutsedge): 2.2 kg/ha

From patent US4731109A, “Herbicidal 2-haloacetanilides” (Monsanto Company, priority 1982, dated 1988)
